Here are results for three compounds from ChEMBL document CHEMBL5620353, “Novel antifungal triazoles with alkynyl-methoxyl side chains: Design, synthesis, and biological activity evaluation” (Eur J Med Chem, 2023).

For data set [1], the system named is Saccharomyces cerevisiae. Put plainly: Antifungal activity against recombinant Saccharomyces cerevisiae Y2301 overexpressing ScErg11 Y140F assessed as inhibition of fungal growth incubated for 48 hrs by microbroth dilution method. The class given is functional. In general terms: In broth dilution the organism is exposed to a series of concentrations in liquid medium.

In data set [2] the test system is Saccharomyces cerevisiae. Put plainly: Antifungal activity against recombinant Saccharomyces cerevisiae Y2462 overexpressing ScErg11 ScNcp1 assessed as inhibition of fungal growth incubated for 48 hrs by microbroth dilution method. The class given is functional.
Data set [3] relates to Saccharomyces cerevisiae. Put plainly: Antifungal activity against recombinant Saccharomyces cerevisiae Y2374 overexpressing CgErg11 assessed as inhibition of fungal growth incubated for 48 hrs by microbroth dilution method. Type of data set: functional.
Data set [4] concerns Saccharomyces cerevisiae. Put plainly: Antifungal activity against recombinant Saccharomyces cerevisiae Y2716 overexpressing CpErg11 Y132F CpCpr assessed as inhibition of fungal growth incubated for 48 hrs by microbroth dilution method. The class given is functional.
For data set [5], the system named is Saccharomyces cerevisiae. Put plainly: Antifungal activity against recombinant Saccharomyces cerevisiae Y525 overexpressing CaMdr1 assessed as inhibition of fungal growth incubated for 48 hrs by microbroth dilution method. The class given is functional.
For data set [6], the system named is Saccharomyces cerevisiae. Put plainly: Antifungal activity against recombinant Saccharomyces cerevisiae Y2721 overexpressing CpErg11 CpCpr assessed as inhibition of fungal growth incubated for 48 hrs by microbroth dilution method. Type of data set: functional.
In data set [7] the test system is Saccharomyces cerevisiae. Put plainly: Antifungal activity against recombinant Saccharomyces cerevisiae Y2513 overexpressing ScErg11 Y140H assessed as inhibition of fungal growth incubated for 48 hrs by microbroth dilution method. Type of data set: functional.
Data set [8] has as its system Saccharomyces cerevisiae. Put plainly: Antifungal activity against recombinant Saccharomyces cerevisiae Y570 overexpressing CaCdr1 assessed as inhibition of fungal growth incubated for 48 hrs by microbroth dilution method. The class given is functional.
Data set [9] relates to Saccharomyces cerevisiae. Put plainly: Antifungal activity against recombinant Saccharomyces cerevisiae Y2411 overexpressing ScErg11 assessed as inhibition of fungal growth incubated for 48 hrs by microbroth dilution method. The class given is functional.
Data set [10] deals with Saccharomyces cerevisiae. Put plainly: Resistance index, ratio of MIC for recombinant Saccharomyces cerevisiae Y525 overexpressing CaMdr1 to MIC for recombinant Saccharomyces cerevisiae Y2411 overexpressing ScErg11. Type of data set: functional.
The subject of data set [11] is Saccharomyces cerevisiae. Put plainly: Antifungal activity against recombinant Saccharomyces cerevisiae Y2459 overexpressing CaErg11 CaCpr assessed as inhibition of fungal growth incubated for 48 hrs by microbroth dilution method. Type of data set: functional.
Data set [12] concerns Saccharomyces cerevisiae. Put plainly: Antifungal activity against recombinant Saccharomyces cerevisiae Y2300 overexpressing ScErg11 assessed as inhibition of fungal growth incubated for 48 hrs by microbroth dilution method. The class given is functional.
The nature of data set [13]: Metabolic stability in human liver microsomes assessed as intrinsic clearance at 1 uM preincubated for 10 mins followed by NADPH addition and measured upto 60 mins by LC-MS/MS analysis. The class given is ADME, Microsome. The conditions noted are these: time < 70 min, read-out: CLH. For orientation: Liver microsomes are a subcellular fraction often used to study metabolism.

Data set [14] is described as follows: Metabolic stability in human liver microsomes assessed as half life at 1 uM preincubated for 10 mins followed by NADPH addition and measured upto 60 mins by LC-MS/MS analysis. The class given is ADME, Microsome. The conditions noted are these: time < 70 min.
A short description of data set [15]: Cytotoxicity against HUVEC cells assessed as cell survival at <16 ug/ml incubated for 24 hrs by CCK-8 assay relative to control. Type of data set: toxicity, cell-based. The conditions noted are these: human, dose < 16 µg/ml, read-out: Survival.
A short description of data set [16]: Cytotoxicity against HUVEC cells assessed as cell survival at 128 ug/ml incubated for 24 hrs by CCK-8 assay relative to control. Type of data set: toxicity, cell-based. The conditions noted are these: human, at 128 µg/mL, read-out: Survival. A general note: Formazan colour is commonly taken as a measure of viable cells.
A short description of data set [17]: Hemolytic activity in rabbit RBC at 32 ug/ml incubated for 1 hr by absorbance based analysis. Type of data set: toxicity, cell-based, Oryctolagus cuniculus, Erythrocyte. As to conditions: rabbit red blood cells, at 32 µg/mL, read-out: Activity.

Regarding `C[C@@H](c1ncncc1F)[C@](O)(Cn1cncn1)c1ccc(F)cc1F` [VORICONAZOLE], the MIC (in general, the least concentration at which growth counts as inhibited) with Saccharomyces cerevisiae [1] was found to be 0.031 µg/mL; in the data set on Saccharomyces cerevisiae [2], 0.063 µg/mL; in the data set with Saccharomyces cerevisiae [3], 0.031 µg/mL; in the data set on Saccharomyces cerevisiae [4], 0.25 µg/mL; with Saccharomyces cerevisiae [5] it was 0.5 µg/mL; with Saccharomyces cerevisiae [6] it was 0.063 µg/mL. Further, the minimum inhibitory concentration (MIC) came to 0.031 µg/mL in the data set on Saccharomyces cerevisiae [7]; 8 µg/mL in the data set with Saccharomyces cerevisiae [8]; 0.008 µg/mL with Saccharomyces cerevisiae [9]; 0.016 µg/mL in the data set on Saccharomyces cerevisiae [11]; 0.031 µg/mL in the data set on Saccharomyces cerevisiae [12]. Besides, the Ratio with Saccharomyces cerevisiae [10] was found to be 64.

For `Cc1ncc2n1-c1ccc(Cl)cc1C(c1ccccc1F)=NC2` [MIDAZOLAM], the microsomal CLint at 1 µM in data set [13] worked out at 297 µL/min/mg. Besides, the half-life (commonly how long it takes for the measured level to halve) at 1 µM in [14] is 4.67 min.

For `C[C@@H]1[C@H](O)[C@@H](C)/C=C/C=C/C=C/C=C/C=C/C=C/C=C/[C@H](O[C@@H]2O[C@H](C)[C@@H](O)[C@H](N)[C@@H]2O)C[C@@H]2O[C@](O)(C[C@@H](O)C[C@@H](O)[C@H](O)CC[C@@H](O)C[C@@H](O)CC(=O)O[C@H]1C)C[C@H](O)[C@H]2C(=O)O` [AMPHOTERICIN B], the viability at 24 h in [15] was found to be 50%. For the same compound, in [16], the viability at 24 h, 128 ug/ml is 26.1%. In addition, the hemolysis at 1 h, 32 ug/ml in [17] was greater than 50%.
